Data as given in patent US5206260A, “Hexahydropyrrolo[2,3-b]indole derivatives” (priority 1991, dated 1993).

Key:
[1] = Metabolites of heptylphysostigmine (dog urine after oral dosing; canine liver microsomes); assay type: in vivo; details: mammalian metabolites
Description: The foregoing metabolites were originally isolated from dog urine following oral dosing with trimethyl-1,3a,8-hexahydro-1,2,3,3a,8,8a-pyrrol-[2,3-b]indole-5(3aS,8aR)heptylcarbamate at dosage levels of 1 mg/kg/day. Some of these compounds were also isolated from an incubation mixture of canine liver microsomes and trimethyl-1,3a,8-hexahydro-1,2,3,3a,8,8a-pyrrol[2,3-b]indole-5(3aS,8aR)-heptylcarbamate at a concentration of 10 μM in the presence of MgCl2 and NADPH in a buffer of approximately neutral pH at approximately 30°-40° C. The compounds were isolated from the biological matrix by selective solid phase or solvent extraction and purified by liquid chromatography (LC) using different mobile phase conditions. The procedures and the results of these experiments are noted in Examples 1-3.
Incubation of heptylphysostigmine with dog liver microsomes or 9,000×g supernatant fractions was performed to generate metabolites. The incubation mixture contained 100 μmoles of potassium phosphate, pH 7.4, 3 μmoles of MgCl2, 0.5 μmole of NADPH, 1 mg microsomal or 4 mg S9 protein and 10 nmols of ^3 H-heptylphysostigmine in a final volume of 1.0 ml. The incubations were carried out at 37° C. and 120 rpm for 10, 30 or 60 minutes. At the end of the incubation period, metabolites were extracted with a 2:1 mixture of ethyl acetate and acetone. […]

[2] = background statement, cited from earlier work
[3] = Somani et al., 1989; cited from earlier work

SMILES	metabolites discovered [1]	half-life of effect [2]	side-effects ([2]; particularly towards the digestive system)	metabolites reported [3]
CCCCCCCNC(=O)Oc1ccc2c(c1)[C@]1(C)CCN(C)[C@@H]1N2C [heptylphysostigmine, trimethyl-1,3a,8-hexahydro-1,2,3,3a,8,8a-pyrrol[2,3-b]indole-5(3aS,8aR) heptylcarbamate]	eseroline and eseroline glucuronide were also discovered among the mammalian metabolites			
CNC(=O)Oc1ccc2c(c1)[C@]1(C)CCN(C)[C@@H]1N2C [physostigmine, trimethyl-1,3a,8-hexahydro-1,2,3,3a,8,8a-pyrrol[2,3-b]indole-5(3aS,8aR)methylcarbamate]		short half-life of effect	severe dose-limiting side-effects	metabolized to eseroline and at least three other unknown metabolites
